Measured values as given in patent US9567318B2, “Substituted pyrimidine compounds and uses thereof” (Memorial Sloan-Kettering Cancer Center, priority 2009, dated 2017).

Legend:
Assay type in all cases: cell-based, human
[1] = tested on: MDA-MB-468, SKBr3, LNCaP, MOLM-13, Kasumi-1, OCI-Ly7 and HuH7 cells; assay: Growth inhibition in a panel of cancer cells; conditions: growth over 72 h
Description: Tested were MDA-MB-468 triple-negative breast cancer cells, SKBr3 HER2+breast cancer cells, LNCaP mAR+prostate cancer cells, MOLM-13 and Kasumi-1 acute myeloid leukemia cells, OCI-Ly7 diffuse large B-cell lymphoma cells and HuH7 hepatocellular carcinoma cells. […] In cancer cells, half growth inhibitory concentrations ([…]) recorded for YK5 were in high agreement with its potency to degrade Hsp90 onco-clients.
Growth Inhibition Assay. Antiproliferative effects of inhibitors were evaluated using the dye Alamar blue. This reagent offers a rapid objective measure of cell viability in cell culture, and it uses the indicator dye resazurin to measure the metabolic capacity of cells, an indicator of cell viability. Briefly, cells were plated on Costar 96-well plates. For attached cells (such as SKBr3, MDA-MB-468, LNCaP, MRCS), 8,000 cells/well were used. For suspension cells (such as MOLM-13, Kasumi-1, OCI-Ly7, PBL), 20,000 cells/well were plated. Cells were allowed to incubate for 24 h at 37° C. before drug treatment. Drugs were added in triplicates at the indicated concentrations, and the plate was incubated for 72 h. Alamar Blue (440 μM) was added, and the plate read 6 h later using the Analyst GT (Fluorescence intensity mode, excitation 530 nm, emission 580 nm, with 560=dichroic mirror). Results were analyzed using the Softmax Pro software. The percentage cell growth inhibition was calculated by comparing fluorescence readings obtained from treated versus control cells, accounting for initial cell population (time zero).

[2] = tested on: Mia-PaCa2, AsPC-1, BxPC3 and PL45 cells; assay: Apoptosis, acridine orange/ethidium bromide, pancreatic cancer cells; conditions: 10 μM, 24-48 h
Description: To determine whether cell death by YK5 was attributable to apoptosis, cells were treated with YK5 and effects on morphology, as well as on several effectors and mediators of apoptosis were analyzed (FIG. 13). To quantify the number of cells undergoing apoptosis, cells were stained with acridine orange/ethidium bromide (AO/EB) and analyzed under a fluorescence microscope for the percentage of viable, apoptotic (early and late) and necrotic cells. […] Most sensitive to YK5 were pancreatic cancer cells.
Apoptosis-Acridine Orange/Ethidium Bromide. Apoptosis was determined using acridine orange/ethidium bromide (AO/EB) double staining. Acridine orange is taken up by both viable and nonviable cells and emits green fluorescence if intercalated into double stranded nucleic acid (DNA) or red fluorescence if bound to single stranded nucleic acid (RNA). Ethidium bromide is taken up only by nonviable cells and emits red fluorescence by intercalation into DNA. (1) Viable cells have uniform green nuclei with organized structure. […] Following staining with Acridine Orange and Ethidium Bromide cells were visualized with a fluorescent microscope (Zeiss Axiovert 40 CFL) and counted. Percentage of apoptotic cells was determined from 200-300 cells counted in each group.

MDA-MB-468 cells = assay: Propidium iodide staining and flow cytometry (cell cycle, hypodiploid population, TNFα); conditions: YK5 1 μM, TNFα 20 ng/ml
Description: FIG. 12. YK5 affects the major hallmarks of cancer: inhibits proliferation and invasiveness and arrests cancer cells in the cell cycle. (a) The indicated cancer cells were incubated with increasing concentrations of inhibitors and growth over 72 h was assessed. Y-axis values below 0% represent cell death of the starting population. Drugs were assayed in triplicate. (b) Mice (n=5) bearing MDA-MB-468 subcutaneously (s.c.) xenografted tumors that reached a volume of approximately 100-200 mm^3, were administered i.t. YK5 or vehicle as described in Methods. Tumor volume (mm^3) was estimated from caliper measurements. (c) Cells were treated for 24 h with indicated concentrations of YK5. DNA content was analyzed by propidium iodide staining and flow cytometry (left), whereas proteins by western blotting (right). (d) Hsp70 client proteins isolated by YK55-beads from SKBr3 and MDA-MB-468 extracts (500 μg) were analyzed by western blotting. Control beads contain D-biotin (100 μM) attached. (e) MDA-MB-231 breast cancer cells were treated for 24 h with YK5 (1 μM) and protein extracts were subjected to immunoblotting (upper) or pre-treated for 24 h with vehicle or YK5, and viable cells able to migrate through Matrigel over a 20 h period were quantified and data graphed (lower). […]
FIG. 13. […] (a,b) Apoptotic cells were quantified by dual acridine orange/ethidium bromide staining as described in Methods. […]

Question: With `C=CC(=O)Nc1cc(N)nc(Sc2c(OC)nc(N3CCN(C)CC3)nc2OC)n1` [YK5, N-(6-amino-2-(4,6-dimethoxy-2-(4-methylpiperazin-1-yl)pyrimidin-5-ylthio)pyrimidin-4-yl)acrylamide] as the compound, how does the “growth of all tested cancer cells” value [1] read?
Answer: The value was “inhibited the growth of all tested cancer cells”.

Question: What about the “apoptosis in pancreatic cancer cells” value [2] of the same compound?
Answer: The value was “induced significant apoptosis”.

Question: What about the “apoptotic effect of TNFα” value (MDA-MB-468 cells) of the same compound?
Answer: Its value is “increased the apoptotic effect of TNFα”.
